Reference: the supplement of paper PMC10307832

Columns and labels:
Test in all cases: relative viability (nuclei count vs DMSO), 5 days (fraction); higher = more cells survive
XMD13-2 + AZD7762 = compound: C1CC1C(=O)NC2=NNC3=C2C=CC(=C3)C4=CC(=CC=C4)C(=O)NC5CC5 [XMD13-2] + NC(=O)Nc1cc(-c2cccc(F)c2)sc1C(=O)N[C@H]1CCCNC1 [AZD7762] (partner 0.2 µM)
Summary of the method: (§1)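 Lung cancer cell lines were pin-tool dosed in 1536-well plates on the day after seeding, with either a lone drug or a fixed anchor-drug dose plus five library-drug doses (not always all listed) in √10 steps. Nuclei were counted on 4× images after 5 days. Relative viability is the ratio of treated-well to vehicle-well nuclei counts, with each value a median of duplicate plates.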

ALW-II-49-7 + Linsitinib = compound: Cc1ccc(C(=O)Nc2cccc(C(F)(F)F)c2)cc1Nc1cncc(C(N)=O)c1 [ALW-II-49-7] + C[C@]1(O)C[C@@H](c2nc(-c3ccc4ccc(-c5ccccc5)nc4c3)c3c(N)nccn32)C1 [Linsitinib] (partner 1 µM)
Summary of the method: as §1

Dasatinib + Alpelisib = compound: Cc1nc(Nc2ncc(C(=O)Nc3c(C)cccc3Cl)s2)cc(N2CCN(CCO)CC2)n1 [Dasatinib] + Cc1nc(NC(=O)N2CCC[C@H]2C(N)=O)sc1-c1ccnc(C(C)(C)C(F)(F)F)c1 [Alpelisib] (partner 2 µM)
Summary of the method: as §1

ALW-II-49-7 + AZD7762 = compound: Cc1ccc(C(=O)Nc2cccc(C(F)(F)F)c2)cc1Nc1cncc(C(N)=O)c1 [ALW-II-49-7] + NC(=O)Nc1cc(-c2cccc(F)c2)sc1C(=O)N[C@H]1CCCNC1 [AZD7762] (partner 0.2 µM)
Summary of the method: as §1

Cell Line | relative viability (XMD13-2 + AZD7762; first compound 0.05 µM) | relative viability (XMD13-2 + AZD7762; first compound 0.1581 µM) | relative viability (XMD13-2 + AZD7762; first compound 0.5 µM) | relative viability (XMD13-2 + AZD7762; first compound 1.581 µM) | relative viability (XMD13-2 + AZD7762; first compound 5 µM) | relative viability (ALW-II-49-7 + Linsitinib; first compound 0.08 µM) | relative viability (ALW-II-49-7 + Linsitinib; first compound 0.253 µM) | relative viability (ALW-II-49-7 + Linsitinib; first compound 0.8 µM) | relative viability (ALW-II-49-7 + Linsitinib; first compound 2.53 µM) | relative viability (ALW-II-49-7 + Linsitinib; first compound 8 µM) | relative viability (Dasatinib + Alpelisib; first compound 0.005 µM) | relative viability (Dasatinib + Alpelisib; first compound 0.01581 µM) | relative viability (Dasatinib + Alpelisib; first compound 0.05 µM) | relative viability (Dasatinib + Alpelisib; first compound 0.1581 µM) | relative viability (Dasatinib + Alpelisib; first compound 0.5 µM) | relative viability (ALW-II-49-7 + AZD7762; first compound 0.08 µM) | relative viability (ALW-II-49-7 + AZD7762; first compound 0.253 µM) | relative viability (ALW-II-49-7 + AZD7762; first compound 0.8 µM) | relative viability (ALW-II-49-7 + AZD7762; first compound 2.53 µM) | relative viability (ALW-II-49-7 + AZD7762; first compound 8 µM)
201T | 0.634 | 0.707 | 0.584 | 0.616 | 0.61 | 1.03 | 1.06 | 1.02 | 0.983 | 1 | 0.95 | 0.922 | 0.845 | 0.654 | 0.338 | 0.661 | 0.604 | 0.745 | 0.574 | 0.552
A549 | – | – | – | – | – | 0.654 | 0.511 | 0.551 | 0.263 | 0.481 | 0.65 | 0.479 | 0.558 | 0.432 | 0.139 | – | – | – | – | –
A-427 | 0.899 | 0.74 | 0.811 | – | 0.588 | 1.17 | 1.15 | 1.15 | 1.12 | 1.18 | 0.961 | 1.06 | 1 | 0.573 | 0.533 | 0.714 | 0.814 | 0.634 | 0.759 | 0.482
ABC-1 | – | 0.897 | 0.531 | – | 0.745 | 0.87 | 0.85 | 0.676 | 0.885 | 0.765 | 0.978 | 0.776 | 0.888 | 0.714 | 0.571 | 0.914 | 0.563 | 0.915 | – | 0.668
COR-L23 | – | – | – | – | – | 0.947 | 0.829 | 0.769 | 0.953 | 0.957 | 0.591 | 0.5 | 0.523 | 0.347 | 0.216 | – | – | – | – | –
COR-L 105 | – | – | – | – | – | 0.884 | 0.848 | 0.824 | 0.745 | 0.752 | 0.671 | 0.486 | 0.715 | 0.452 | 0.209 | – | – | – | – | –
Calu-6 | – | – | – | – | – | 0.987 | 0.847 | 0.903 | 0.881 | 0.852 | 0.801 | 0.665 | 0.731 | 0.613 | 0.576 | – | – | – | – | –
ChaGo-K-1 | 0.956 | 0.97 | 0.892 | 0.924 | 0.881 | – | – | – | – | – | – | – | – | – | – | 0.94 | 0.996 | 0.882 | 0.768 | 0.807
EBC-1 | – | – | – | – | – | 0.83 | 0.784 | 0.358 | 0.856 | 0.391 | 0.78 | 0.755 | 0.579 | 0.579 | 0.463 | – | – | – | – | –
IA-LM | – | – | – | – | – | 0.627 | 0.342 | 0.378 | 0.449 | 0.135 | 0.969 | 0.71 | 0.882 | 0.84 | 0.62 | – | – | – | – | –
NCI-H520 | – | – | – | – | – | 0.779 | 1.04 | – | 1.16 | 0.951 | 0.539 | 0.456 | 0.457 | 0.145 | 0.142 | – | – | – | – | –
